16 molecules from patent US9796711B2, “Substituted pyrazolo[3,4-b]pyridin-6-carboxylic acids and method of use” (AbbVie S.àr.l., priority 2015, dated 2017) can be followed below.

The target of assay [1] is T1, ΔF508-CFTR (Homo sapiens, UniProt P13569, DEL508-508).
T1 construct: host or cells: CFBE41o-, doxycycline-inducible
Description: CFTR cell surface levels using HRP-tagged ΔF508-CFTR expressing CFBE cells, in the presence of a co-corrector. The class given is cell-based. To be noted: HRP-tagged ΔF508-CFTR expressing CFBE cells, in the presence of 3 μM co-corrector; for EC50: read-out: EC50. An outline of the steps:
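Cells were seeded with 0.5 μg/mL doxycycline and held 68 h at 37 °C. Test compounds plus 3 μM co-corrector (final 0.1% DMSO) were then added for 20 h at 33 °C. Washed cells received HRP substrate, and luminescence was normalized between DMSO and 3 μM co-corrector controls.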

The target of assay [2] is T1, ΔF508-CFTR. Briefly: CFTR cell surface levels using HRP-tagged ΔF508-CFTR expressing CFBE cells, intrinsic corrector capacity. The class given is cell-based. To be noted: for EC50: read-out: EC50. A digest of the protocol: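 Here the cells express ΔF508-CFTR with horseradish peroxidase inserted in extracellular loop 4, so only rescued channel at the surface gives luminescent signal. Compounds act on their own, 20 h at the reduced temperature of 33 °C; values are percent activity relative to DMSO and a 3 μM corrector.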

Where [3] appears, read: HRP-tagged ΔF508-CFTR CFBE41o- cells, compounds alone (intrinsic corrector capacity), 20 hours at 33° C., positive control 3 μM corrector.
Setting [4] is: HRP-tagged ΔF508-CFTR CFBE41o- cells, compounds alone (intrinsic corrector capacity), 20 hours at 33° C.
Where [5] appears, read: HRP-tagged ΔF508-CFTR expressing CFBE cells, intrinsic corrector capacity (no co-corrector), 33° C., 20 hours.

T1 sequence (P13569 with tags, fused parts or gaps DEL508-508): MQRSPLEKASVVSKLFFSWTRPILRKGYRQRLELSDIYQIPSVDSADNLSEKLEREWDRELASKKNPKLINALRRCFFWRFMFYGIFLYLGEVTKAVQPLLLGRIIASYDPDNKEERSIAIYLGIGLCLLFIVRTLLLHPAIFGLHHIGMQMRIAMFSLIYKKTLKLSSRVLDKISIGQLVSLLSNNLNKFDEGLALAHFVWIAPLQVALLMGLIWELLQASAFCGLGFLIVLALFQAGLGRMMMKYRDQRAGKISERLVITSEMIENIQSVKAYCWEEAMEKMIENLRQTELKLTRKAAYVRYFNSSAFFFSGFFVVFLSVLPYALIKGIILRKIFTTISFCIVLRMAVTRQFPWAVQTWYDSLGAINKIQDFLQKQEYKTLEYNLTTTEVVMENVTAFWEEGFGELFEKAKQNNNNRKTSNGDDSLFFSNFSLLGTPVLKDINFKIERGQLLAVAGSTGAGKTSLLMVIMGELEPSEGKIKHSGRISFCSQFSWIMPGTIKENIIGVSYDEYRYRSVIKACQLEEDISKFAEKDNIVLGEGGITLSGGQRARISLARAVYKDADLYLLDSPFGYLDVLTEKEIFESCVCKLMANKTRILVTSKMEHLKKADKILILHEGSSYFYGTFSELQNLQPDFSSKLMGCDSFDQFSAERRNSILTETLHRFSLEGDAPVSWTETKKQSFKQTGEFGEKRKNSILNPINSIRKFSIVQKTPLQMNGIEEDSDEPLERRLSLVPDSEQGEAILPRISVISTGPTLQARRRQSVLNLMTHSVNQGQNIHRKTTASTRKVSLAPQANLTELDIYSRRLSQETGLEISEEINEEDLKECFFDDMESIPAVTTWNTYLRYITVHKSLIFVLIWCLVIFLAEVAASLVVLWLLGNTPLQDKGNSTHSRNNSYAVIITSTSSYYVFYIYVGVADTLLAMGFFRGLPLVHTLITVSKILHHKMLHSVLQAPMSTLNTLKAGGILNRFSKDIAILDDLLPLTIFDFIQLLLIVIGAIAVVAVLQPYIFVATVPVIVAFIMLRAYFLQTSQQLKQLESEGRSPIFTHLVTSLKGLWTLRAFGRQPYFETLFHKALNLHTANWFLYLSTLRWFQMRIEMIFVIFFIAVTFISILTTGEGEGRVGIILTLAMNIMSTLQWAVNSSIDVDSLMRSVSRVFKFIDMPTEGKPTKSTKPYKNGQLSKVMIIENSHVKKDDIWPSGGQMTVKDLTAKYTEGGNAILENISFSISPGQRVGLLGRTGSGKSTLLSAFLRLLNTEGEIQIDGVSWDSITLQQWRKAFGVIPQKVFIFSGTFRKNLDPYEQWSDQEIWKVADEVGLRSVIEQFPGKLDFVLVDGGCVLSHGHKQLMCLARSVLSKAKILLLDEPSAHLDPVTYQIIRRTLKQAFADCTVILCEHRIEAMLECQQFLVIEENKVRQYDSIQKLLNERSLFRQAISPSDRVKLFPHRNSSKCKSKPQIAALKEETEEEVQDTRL

Regarding `COCCN(C)c1ccc(-c2cc(C(=O)O)nc3c2c(C(C)C)nn3-c2cccc(N3CCCC3)c2)cn1` [compound 253, 4-{6-[(2-methoxyethyl)(methyl)amino]pyridin-3-yl}-3-(propan-2-yl)-1-[3-(pyrrolidin-1-yl)phenyl]-1H-pyrazolo[3,4-b]pyridine-6-carboxylic acid], the “% Activation” value at ΔF508-CFTR [1] is listed as 568.13%; on ΔF508-CFTR [2] (setting [3]) it was 375.87%. For the same molecule, the EC50 at ΔF508-CFTR [1] was determined as 425 nM; on ΔF508-CFTR [2] (setting [4]), 656 nM.

Consider `CC(C)c1nn(-c2ccc(F)cc2)c2nc(C(=O)O)cc(N3CC4(CCCOC4)C3)c12` [compound 400, 1-(4-fluorophenyl)-4-(6-oxa-2-azaspiro[3.5]nonan-2-yl)-3-(propan-2-yl)-1H-pyrazolo[3,4-b]pyridine-6-carboxylic acid], for which, on ΔF508-CFTR [1], the “% Activation” value is on record as 283.65% and the EC50 stood at 980 nM. For the same molecule, at ΔF508-CFTR [2] (setting [5]), the “% Activation” value was found to be 111.35% and the EC50 was determined as 1350 nM.

In the case of `Cc1nn(-c2ccccc2)c2nc(C(=O)O)cc(-c3ccc(N4CCOC(CO)C4)cc3)c12` (stereo not shown) [compound 133, 4-{4-[2-(hydroxymethyl)morpholin-4-yl]phenyl}-3-methyl-1-phenyl-1H-pyrazolo[3,4-b]pyridine-6-carboxylic acid], the “% Activation” value at ΔF508-CFTR [1] was determined as 280.3%; on ΔF508-CFTR [2] (setting [3]), 74.96%. In addition, the EC50 on ΔF508-CFTR [1] and at ΔF508-CFTR [2] (setting [4]) was 3340 nM throughout.

Take `N#CC1CN(C2CCN(c3cc(C(=O)O)nc4c3c(C3CCC3)nn4-c3ccc(F)cc3)CC2)CCO1` (stereo not shown) [compound 851, 4-[4-(2-cyanomorpholin-4-yl)piperidin-1-yl]-3-cyclobutyl-1-(4-fluorophenyl)-1H-pyrazolo[3,4-b]pyridine-6-carboxylic acid]: at ΔF508-CFTR [1], the “% Activation” value is reported as 559.8% and the half-maximal effective concentration (EC50) was found to be 123 nM. Also, on ΔF508-CFTR [2] (setting [5]), the “% Activation” value is 342.9% and the EC50 was 244 nM.

For the molecule `Cc1nn(-c2ccccc2)c2nc(C(=O)O)cc(O[C@@H]3CCN(C)C3)c12` [compound 338, 3-methyl-4-{[(3R)-1-methylpyrrolidin-3-yl]oxy}-1-phenyl-1H-pyrazolo[3,4-b]pyridine-6-carboxylic acid], the entries for the “% Activation” value at ΔF508-CFTR [1] and on ΔF508-CFTR [2] (setting [3]) were 135.7% and 12.64%, respectively. For the same molecule, the half-maximal effective concentration (EC50) at ΔF508-CFTR [1] and at ΔF508-CFTR [2] (setting [4]) was 7500 nM each time.

On to `CN1CCN(CCCOc2cc(C(=O)O)nc3c2c(C2CCC2)nn3-c2ccccc2)CC1` [compound 634, 3-cyclobutyl-4-[3-(4-methylpiperazin-1-yl)propoxy]-1-phenyl-1H-pyrazolo[3,4-b]pyridine-6-carboxylic acid], for which, at ΔF508-CFTR [1], the “% Activation” value was 294.7% and the concentration for a half-maximal effect (EC50) is 2570 nM. Besides, at ΔF508-CFTR [2] (setting [5]), the “% Activation” value was 122.2% and the half-maximal effective concentration (EC50) is 3330 nM.

Turning to `COC(C)(C)C1CCN(c2cc(C(=O)O)nc3c2c(C(C)C)nn3-c2ccc(F)cc2)CC1` [compound 438, 1-(4-fluorophenyl)-4-[4-(2-methoxypropan-2-yl)piperidin-1-yl]-3-(propan-2-yl)-1H-pyrazolo[3,4-b]pyridine-6-carboxylic acid], on ΔF508-CFTR [1], the “% Activation” value amounted to 507.27% and the EC50 was 387 nM. At ΔF508-CFTR [2] (setting [5]), the “% Activation” value is given as 277.03% and the EC50 stood at 331 nM.

With `Cc1nn(-c2ccccc2)c2nc(C(=O)O)cc(N3CCC([C@H](F)CN(C)C)CC3)c12` [compound 314, 4-{4-[(1S)-2-(dimethylamino)-1-fluoroethyl]piperidin-1-yl}-3-methyl-1-phenyl-1H-pyrazolo[3,4-b]pyridine-6-carboxylic acid], the “% Activation” value turned out to be 250.1% at ΔF508-CFTR [1] and 92.46% on ΔF508-CFTR [2] (setting [3]). Further, the concentration for a half-maximal effect (EC50) on ΔF508-CFTR [1] and at ΔF508-CFTR [2] (setting [4]) was 2510 nM throughout.

On to `CC(C)c1nn(-c2cccc(C(F)(F)F)c2)c2nc(C(=O)O)cc(-c3ccc(N4CCC(C#N)CC4)cc3)c12` [compound 261, 4-[4-(4-cyanopiperidin-1-yl)phenyl]-3-(propan-2-yl)-1-[3-(trifluoromethyl)phenyl]-1H-pyrazolo[3,4-b]pyridine-6-carboxylic acid], for which the “% Activation” value on ΔF508-CFTR [1] was found to be 519.37%; on ΔF508-CFTR [2] (setting [3]), 314.07%. The results for the half-maximal effective concentration (EC50) on ΔF508-CFTR [1] and at ΔF508-CFTR [2] (setting [4]) were 553 nM and 702 nM, respectively.

Take `COCCN(C)C1CCN(c2cc(C(=O)O)nc3c2c(C2CCC2)nn3-c2ccc(F)cc2)CC1` [compound 895, 3-cyclobutyl-1-(4-fluorophenyl)-4-{4-[(2-methoxyethyl)(methyl)amino]piperidin-1-yl}-1H-pyrazolo[3,4-b]pyridine-6-carboxylic acid]: at ΔF508-CFTR [1], the “% Activation” value is on record as 429.4% and the concentration for a half-maximal effect (EC50) was found to be 3330 nM. Also, on ΔF508-CFTR [2] (setting [5]), the “% Activation” value stood at 178.2% and the concentration giving a half-maximal response (EC50) turned out to be 1280 nM.

In the case of `NC(=O)c1nn(-c2ccccc2)c2nc(C(=O)O)cc(-c3ccc(N4CCOCC4)cc3)c12` [compound 64, 3-carbamoyl-4-[4-(morpholin-4-yl)phenyl]-1-phenyl-1H-pyrazolo[3,4-b]pyridine-6-carboxylic acid], the “% Activation” value at ΔF508-CFTR [1] is given as 113.3%; on ΔF508-CFTR [2] (setting [3]) it was 3.754%. Also, the 50% effective concentration (EC50) at ΔF508-CFTR [1] and on ΔF508-CFTR [2] (setting [4]) was over 10000 nM throughout.

Regarding `N#CC1CCN(c2ccc(-c3cc(C(=O)O)nc4c3c(C3CCC3)nn4-c3ccnc(N4CCOCC4)c3)cn2)CC1` [compound 416, 4-[6-(4-cyanopiperidin-1-yl)pyridin-3-yl]-3-cyclobutyl-1-[2-(morpholin-4-yl)pyridin-4-yl]-1H-pyrazolo[3,4-b]pyridine-6-carboxylic acid], the entries for the “% Activation” value on ΔF508-CFTR [1] and at ΔF508-CFTR [2] (setting [5]) were 369.5% and 179.1%, respectively. Moreover, the concentration giving a half-maximal response (EC50) at ΔF508-CFTR [1] came out at 785 nM; on ΔF508-CFTR [2] (setting [5]), 1250 nM.

For the molecule `Cc1nn(-c2ccccc2)c2nc(C(=O)O)cc(OCCC3CC(F)(F)C3)c12` [compound 347, 4-[2-(3,3-difluorocyclobutyl)ethoxy]-3-methyl-1-phenyl-1H-pyrazolo[3,4-b]pyridine-6-carboxylic acid], the “% Activation” value worked out at 259.55% at ΔF508-CFTR [1] and 79.835% at ΔF508-CFTR [2] (setting [3]). The concentration for a half-maximal effect (EC50) on ΔF508-CFTR [1] and at ΔF508-CFTR [2] (setting [4]) was 1410 nM each time.

Regarding `COCC1CCN(c2cc(C(=O)O)nc3c2c(C(C)C)nn3-c2cccc(N(C)C)c2)CC1` [compound 368, 1-[3-(dimethylamino)phenyl]-4-[4-(methoxymethyl)piperidin-1-yl]-3-(propan-2-yl)-1H-pyrazolo[3,4-b]pyridine-6-carboxylic acid], the “% Activation” value was 515.5% on ΔF508-CFTR [1] and 357.3% at ΔF508-CFTR [2] (setting [3]). The 50% effective concentration (EC50) on ΔF508-CFTR [1] came to 290 nM; on ΔF508-CFTR [2] (setting [4]), 521 nM.

`CC(C)c1nn(-c2ccc(F)cc2)c2nc(C(=O)O)cc(N3CCN(CC4CCCO4)CC3)c12` (stereo not shown) [compound 792, 1-(4-fluorophenyl)-4-{4-[(oxolan-2-yl)methyl]piperazin-1-yl}-3-(propan-2-yl)-1H-pyrazolo[3,4-b]pyridine-6-carboxylic acid]: the entries for the “% Activation” value on ΔF508-CFTR [1] and at ΔF508-CFTR [2] (setting [5]) were 321% and 170.1%, respectively. Besides, the values for the concentration giving a half-maximal response (EC50) at ΔF508-CFTR [1] and at ΔF508-CFTR [2] (setting [5]) were 710 nM and 1430 nM, respectively.

Consider `Cc1cccc(-n2nc(C(C)C)c3c(N4CC5CN(C(=O)OC(C)(C)C)CC5C4)cc(C(=O)O)nc32)c1` (stereo not shown) [compound 216, 4-[5-(tert-butoxycarbonyl)hexahydropyrrolo[3,4-c]pyrrol-2(1H)-yl]-1-(3-methylphenyl)-3-(propan-2-yl)-1H-pyrazolo[3,4-b]pyridine-6-carboxylic acid], for which the “% Activation” value at ΔF508-CFTR [1] turned out to be 431.7%; on ΔF508-CFTR [2] (setting [3]) it was 161%. Also, the EC50 on ΔF508-CFTR [1] is 1110 nM; on ΔF508-CFTR [2] (setting [4]), 1010 nM.
